Laboratory results: US5326882A, “Chemiluminescent 3-(substituted Adamant-2'-Ylidene) 1,2-dioxetanes” (Tropix, Inc., priority 1992, dated 1994)

Legend:
[1] = molecular target: T1, alkaline phosphatase-labeled DNA probe (Bos taurus, UniProt P19111); assay: Alkaline phosphatase-labeled DNA probe detection in membrane with and without BDMQ blocking step (Example XV); settings: for Detection limit (in picograms DNA) 5. min. exp.: five minute exposure 40 minutes after dioxetane addition; for Detection limit (in picograms DNA) 1 min. exp.: one minute exposure 77 minutes after dioxetane addition
T1 construct: purchased Tropix, Inc
Procedure: pBr 322 plasmid (4700 bp) was subjected to a nick translation process using a Trans-Light kit (Tropix, Inc., Bedford, Mass.) to generate a mixture of biotinylated single stranded polynucleotides of 200-2000 bps in length.
This mixture was dotted onto a dry BIODYNE A membrane as five parallel columns of dots of the following concentrations:
The membrane was subjected to ultraviolet irradiation (UVP Mineral Light; UVP, San Gabriel, Calif.) for 3 minutes to fix the DNA to the surface of the membrane, then air dried. Next, the membrane was blocked in 0.2% casein/0.1% Tween 20 detergent in PBS for 1 hour, following which 1/5000 diluted avidin-alkaline phosphatase conjugate (Tropix, Inc.) in 0.2% casein in PBS was added. The membrane was then incubated for 30 minutes, washed three times (for 5 minutes each time) in 0.2% casein/0.1% Tween 20 detergent in PBS and washed once for five minutes in aqueous 0.1M diethanolamine containing 1 mm magnesium chloride and 0.02% sodium azide, pH 10.0 (substrate buffer).
Next, the five columns of rows of dots 1-5 were individually cut from the membrane ("strips 1-5"), as were the five columns of rows of dots 6-10 ("strips 6-10"). Strips 1-5 were washed with substrate buffer for 30 minutes. Strips 6-10 were blocked in 0.1% BDMQ in substrate buffer for 30 minutes. Both sets of strips were then incubated for 5 minutes in substrate buffer, then individually incubated for five minutes in aqueous solutions (0.25 mM) of 1,2-dioxetanes as indicated below:
All strips were then placed in camera luminometers and exposed on Polaroid Type 612 instant black and white film.

alkaline phosphatase = alkaline phosphatase (Bos taurus, UniProt P19111); assay: Chemiluminescent signal and signal:background with enhancer polymers (Example XVII); type: biochemical
Procedure: Four sets of three tubes each, each tube in each set containing 450 μl of a 0.4 mM aqueous solution of one of the four 1,2-dioxetanes being compared in 0.1M diethanolamine containing 1 mM magnesium chloride, 0.02% sodium azide and 0.1% of the enhancer polymer, pH 10.0 (substrate buffer) were prepared and the background signal from each tube measured using a Berthold LB 952T luminometer (Berthold Instruments; Wildbad, Federal Republic of Germany).
Next, 50 μl of an aqueous solution, 2.83×10^-12 M of alkaline phosphatase in 0.1M diethanolamine containing 1 mM magnesium chloride, 0.02% sodium azide, pH 10.0, (final enzyme concentration 2.83×10^-13 M) was added to each tube and the chemiluminescent signals were measured in the luminometer at 5 and 20 minutes. The intensity of the chemiluminescent signals and the signal: background ratios obtained for each of the four 1,2-dioxetanes in the presence of the enhancer polymers are shown in Table III below.
The enhancer polymers used, and the symbols for such polymers used in Table III, were the following: […]

T1 sequence (P19111 20-506 limits assumed): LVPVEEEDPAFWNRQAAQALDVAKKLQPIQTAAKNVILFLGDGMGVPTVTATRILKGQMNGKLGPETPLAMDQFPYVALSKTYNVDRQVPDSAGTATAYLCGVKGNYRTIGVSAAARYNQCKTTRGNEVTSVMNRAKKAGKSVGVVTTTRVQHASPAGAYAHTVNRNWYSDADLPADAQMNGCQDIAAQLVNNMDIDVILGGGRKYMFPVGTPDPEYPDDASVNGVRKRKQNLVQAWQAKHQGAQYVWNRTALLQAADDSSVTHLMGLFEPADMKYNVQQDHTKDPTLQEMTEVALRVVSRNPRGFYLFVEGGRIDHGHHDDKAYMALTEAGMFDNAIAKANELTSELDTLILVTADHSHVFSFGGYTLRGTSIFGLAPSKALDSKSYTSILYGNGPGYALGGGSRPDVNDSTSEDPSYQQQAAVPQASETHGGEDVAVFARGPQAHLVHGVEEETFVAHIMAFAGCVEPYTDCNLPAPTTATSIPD
T1 sequence (P02701 25-152 partner): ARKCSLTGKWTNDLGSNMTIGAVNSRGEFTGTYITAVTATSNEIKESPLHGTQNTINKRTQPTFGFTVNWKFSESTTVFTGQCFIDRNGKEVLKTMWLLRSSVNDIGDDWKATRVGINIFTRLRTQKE
Sequence of alkaline phosphatase (P19111 20-506 limits assumed): as the sequence (P19111 20-506 limits assumed) above

COC1(c2cccc(OP(=O)(O)O)c2)OOC12C1CC3CC(C1)CC2C3 (stereo not shown) [AMPPD, 3-(4-methoxyspiro[1,2-dioxetane-3,2'-triyclo[3.3.1.1^3,7]decan]-4-yl)phenyl phosphate, reference compound]
Detection limit (in picograms DNA) 5. min. exp. ([1]; BDMQ blocking step): 0.625 picograms DNA | Detection limit (in picograms DNA) 1 min. exp. ([1]; BDMQ blocking step): 1.250 picograms DNA | Detection limit (in picograms DNA) 5. min. exp. ([1]; no BDMQ blocking step): 2.500 picograms DNA | Detection limit (in picograms DNA) 1 min. exp. ([1]; no BDMQ blocking step): 5.000 picograms DNA | S/N (alkaline phosphatase; polymer BAEDM, 5 min): 107.6 | SIGNAL (alkaline phosphatase; polymer BAEDM, 5 min): 9275.3 | S/N (alkaline phosphatase; polymer BAEDM, 20 min): 306.5 | SIGNAL (alkaline phosphatase; polymer BAEDM, 20 min): 26529.1 | S/N (alkaline phosphatase; polymer BAEDM, time 0): 1.0 | SIGNAL (alkaline phosphatase; polymer BAEDM, time 0 (background, before enzyme)): 217.3 | S/N (alkaline phosphatase; polymer BZ, 5 min): 18.3 | SIGNAL (alkaline phosphatase; polymer BZ, 5 min): 2738.0 | S/N (alkaline phosphatase; polymer BZ, 20 min): 30.9 | SIGNAL (alkaline phosphatase; polymer BZ, 20 min): 4611.5 | S/N (alkaline phosphatase; polymer BZ, time 0): 1.0 | SIGNAL (alkaline phosphatase; polymer BZ, time 0 (background, before enzyme)): 149.4 | S/N (alkaline phosphatase; polymer DAA TMQ, 5 min): 46.4 | SIGNAL (alkaline phosphatase; polymer DAA TMQ, 5 min): 8354.4 | S/N (alkaline phosphatase; polymer DAA TMQ, 20 min): 83.1 | SIGNAL (alkaline phosphatase; polymer DAA TMQ, 20 min): 14957.3 | S/N (alkaline phosphatase; polymer DAA TMQ, time 0): 1.0 | SIGNAL (alkaline phosphatase; polymer DAA TMQ, time 0 (background, before enzyme)): 180.0 | S/N (alkaline phosphatase; polymer DME(OH)B, 5 min): 21.4 | SIGNAL (alkaline phosphatase; polymer DME(OH)B, 5 min): 3462.3 | S/N (alkaline phosphatase; polymer DME(OH)B, 20 min): 52.9 | SIGNAL (alkaline phosphatase; polymer DME(OH)B, 20 min): 8540.9 | S/N (alkaline phosphatase; polymer DME(OH)B, time 0): 1.0 | SIGNAL (alkaline phosphatase; polymer DME(OH)B, time 0 (background, before enzyme)): 161.6 | S/N (alkaline phosphatase; polymer DMEB, 5 min): 52.6 | SIGNAL (alkaline phosphatase; polymer DMEB, 5 min): 9401.5 | S/N (alkaline phosphatase; polymer DMEB, 20 min): 114.4 | SIGNAL (alkaline phosphatase; polymer DMEB, 20 min): 20434.9 | S/N (alkaline phosphatase; polymer DMEB, time 0): 1.0 | SIGNAL (alkaline phosphatase; polymer DMEB, time 0 (background, before enzyme)): 178.6 | S/N (alkaline phosphatase; polymer DMQ TEQ, 5 min): 133.9 | SIGNAL (alkaline phosphatase; polymer DMQ TEQ, 5 min): 32820.5 | S/N (alkaline phosphatase; polymer DMQ TEQ, 20 min): 322.1 | SIGNAL (alkaline phosphatase; polymer DMQ TEQ, 20 min): 78977.4 | S/N (alkaline phosphatase; polymer DMQ TEQ, time 0): 1.0 | SIGNAL (alkaline phosphatase; polymer DMQ TEQ, time 0 (background, before enzyme)): 245.2 | SIGNAL (alkaline phosphatase; polymer EMERALD (sapphire and fluorescein), time 0 (background, before enzyme)): 2902.1 | S/N (alkaline phosphatase; polymer EMERALD, 5 min): 109.4 | SIGNAL (alkaline phosphatase; polymer EMERALD, 5 min): 317571.6 | S/N (alkaline phosphatase; polymer EMERALD, 20 min): 282.1 | SIGNAL (alkaline phosphatase; polymer EMERALD, 20 min): 818775.8 | S/N (alkaline phosphatase; polymer EMERALD, time 0): 1.0 | S/N (alkaline phosphatase; polymer MPB, 5 min): 94.3 | SIGNAL (alkaline phosphatase; polymer MPB, 5 min): 19971.8 | S/N (alkaline phosphatase; polymer MPB, 20 min): 196.9 | SIGNAL (alkaline phosphatase; polymer MPB, 20 min): 41701.8 | S/N (alkaline phosphatase; polymer MPB, time 0): 1.0 | SIGNAL (alkaline phosphatase; polymer MPB, time 0 (background, before enzyme)): 211.8 | S/N (alkaline phosphatase; polymer NONE, 5 min): 21.5 | SIGNAL (alkaline phosphatase; polymer NONE, 5 min, enzyme 2.83×10^-13 M): 3706.0 | S/N (alkaline phosphatase; polymer NONE, 20 min): 34.4 | SIGNAL (alkaline phosphatase; polymer NONE, 20 min, enzyme 2.83×10^-13 M): 5944.8 | S/N (alkaline phosphatase; polymer NONE, time 0): 1.0 | SIGNAL (alkaline phosphatase; polymer NONE, time 0 (background, before enzyme)): 172.6 | S/N (alkaline phosphatase; polymer S/TMQ(1:2), 5 min): 20.2 | SIGNAL (alkaline phosphatase; polymer S/TMQ(1:2), 5 min): 3437.0 | S/N (alkaline phosphatase; polymer S/TMQ(1:2), 20 min): 58.9 | SIGNAL (alkaline phosphatase; polymer S/TMQ(1:2), 20 min): 9994.7 | S/N (alkaline phosphatase; polymer S/TMQ(1:2), time 0): 1.0 | SIGNAL (alkaline phosphatase; polymer S/TMQ(1:2), time 0 (background, before enzyme)): 169.8 | S/N (alkaline phosphatase; polymer S/TMQ(1:4), 5 min): 35.7 | SIGNAL (alkaline phosphatase; polymer S/TMQ(1:4), 5 min): 5931.5 | S/N (alkaline phosphatase; polymer S/TMQ(1:4), 20 min): 95.4 | SIGNAL (alkaline phosphatase; polymer S/TMQ(1:4), 20 min): 15866.3 | S/N (alkaline phosphatase; polymer S/TMQ(1:4), time 0): 1.0 | SIGNAL (alkaline phosphatase; polymer S/TMQ(1:4), time 0 (background, before enzyme)): 116.3 | SIGNAL (alkaline phosphatase; polymer SAPPHIRE (BDMQ), time 0 (background, before enzyme)): 241.4 | S/N (alkaline phosphatase; polymer SAPPHIRE, 5 min): 159.3 | SIGNAL (alkaline phosphatase; polymer SAPPHIRE, 5 min): 38457.8 | S/N (alkaline phosphatase; polymer SAPPHIRE, 20 min): 353.6 | SIGNAL (alkaline phosphatase; polymer SAPPHIRE, 20 min): 85359.8 | S/N (alkaline phosphatase; polymer SAPPHIRE, time 0): 1.0 | SIGNAL (alkaline phosphatase; polymer TBQ-FLUOR (TBQ and fluorescein), time 0 (background, before enzyme)): 4961.2 | S/N (alkaline phosphatase; polymer TBQ-FLUOR, 5 min): 113.9 | SIGNAL (alkaline phosphatase; polymer TBQ-FLUOR, 5 min): 57271.6 | S/N (alkaline phosphatase; polymer TBQ-FLUOR, 20 min): 291.4 | SIGNAL (alkaline phosphatase; polymer TBQ-FLUOR, 20 min): 1445675.6 | S/N (alkaline phosphatase; polymer TBQ-FLUOR, time 0): 1.0 | S/N (alkaline phosphatase; polymer TBQ, 5 min): 191.2 | SIGNAL (alkaline phosphatase; polymer TBQ, 5 min): 94429.4 | S/N (alkaline phosphatase; polymer TBQ, 20 min): 433.9 | SIGNAL (alkaline phosphatase; polymer TBQ, 20 min): 214319.4 | S/N (alkaline phosphatase; polymer TBQ, time 0): 1.0 | SIGNAL (alkaline phosphatase; polymer TBQ, time 0 (background, before enzyme)): 493.9 | S/N (alkaline phosphatase; polymer TEQ, 5 min): 115.3 | SIGNAL (alkaline phosphatase; polymer TEQ, 5 min): 25095.8 | S/N (alkaline phosphatase; polymer TEQ, 20 min): 229.7 | SIGNAL (alkaline phosphatase; polymer TEQ, 20 min): 50020.0 | S/N (alkaline phosphatase; polymer TEQ, time 0): 1.0 | SIGNAL (alkaline phosphatase; polymer TEQ, time 0 (background, before enzyme)): 217.8 | S/N (alkaline phosphatase; polymer TMQ, 5 min): 65.8 | SIGNAL (alkaline phosphatase; polymer TMQ, 5 min): 10525.8 | S/N (alkaline phosphatase; polymer TMQ, 20 min): 141.1 | SIGNAL (alkaline phosphatase; polymer TMQ, 20 min): 22558.3 | S/N (alkaline phosphatase; polymer TMQ, time 0): 1.0 | SIGNAL (alkaline phosphatase; polymer TMQ, time 0 (background, before enzyme)): 159.9
